# Where a name gives a salt, the structure may show the parent alone. Read-outs that look alike come from different tables or passages of the source.
# Assays:
# AGS cells = assay: Cell viability in AGS cells (CellTiter Glo2, 8-point dose response, 4 days); type: cell-based, human
# Procedure: AGS cells were treated with DMSO (no drug control) or each compound in Table 5 in an 8-point dose response for 4 days. Cell viability was measured using CellTiter Glo2. The IC50 of each compound was determined using CDD Vault.
# MV-4-11 cells = assay: Cell viability in MV-4-11 cells (CellTiter Glo2, 4 days); type: cell-based; conditions: Homo sapiens, MV4-11, 96 h
# Procedure: Approximately 10,000 MV-4-11 cells per well of a 96-well plate were treated with DMSO (no drug control) or each compound in Table 6 in an 8-point dose response for 4 days. Cell viability was measured using CellTiter Glo2. The IC50 of each compound was determined using CDD Vault.
# RS4;11 cells = assay: Cell viability in RS4;11 cells (CellTiter Glo2, 4 days); type: cell-based; conditions: Homo sapiens, 96 h
# Procedure: Approximately 10,000 RS4;11 cells per well of a 96-well plate were treated with DMSO (no drug control) or each compound in Table 6 in an 8-point dose response for 4 days. Cell viability was measured using CellTiter Glo2. The IC50 of each compound was determined using CDD Vault.
SMILES,"IC50 (AGS cells; Homo sapiens, AGS, 96 h)",further results
"CCC(=O)N1CCc2cc(-c3ccc(C(=O)NCc4cccnc4)cc3)cc(C)c21 [Compound I-17, 4-(7-methyl-1-propionylindolin-5-yl)-N-(pyridin-3-ylmethyl)benzamide]",1.05 µM,IC50 (AGS cells): 1.02 µM; IC50 (MV-4-11 cells): 0.67 µM; IC50 (RS4;11 cells): 0.27 µM
"CCC(=O)N1CCc2cc(-c3ccc(C(=O)NCc4cccnc4)cc3)ccc21 [Compound I-43, 4-(1-propionylindolin-5-yl)-N-(pyridin-3-ylmethyl) benzamide]",2.48 µM,IC50 (AGS cells): 2.36 µM; IC50 (MV-4-11 cells): 2.93 µM; IC50 (RS4;11 cells): 0.606 µM
"CCC(=O)N(C)c1ccc(-c2ccc(C(=O)NCc3cccnc3)cc2)cc1 [Compound I-45, 4′-(N-methylpropionamido)-N-(pyridin-3-ylmethyl)-[1,1′-biphenyl]-4-carboxamide]",4.45 µM,IC50 (AGS cells): 4.29 µM; IC50 (MV-4-11 cells): 0.218 µM; IC50 (RS4;11 cells): 0.689 µM
"CCC(=O)N1CCc2cc(-c3ccc(C(=O)NCc4cccnc4)cn3)ccc21 [Compound I-54, 6-(1-propionylindolin-5-yl)-N-(pyridin-3-ylmethyl)nicotinamide]",> 17 µM,IC50 (AGS cells): > 16.9 µM; IC50 (MV-4-11 cells): 10.4 µM; IC50 (RS4;11 cells): 4.92 µM
"CCC(=O)N1CCc2c1ccc(-c1ccc(C(=O)NCc3cccnc3)cc1)c2C [Compound I-80, 4-(4-methyl-1-propionylindolin-5-yl)-N-(pyridin-3-ylmethyl)benzamide]",0.49 µM,IC50 (AGS cells): 0.653 µM; IC50 (MV-4-11 cells): 0.565 µM; IC50 (RS4;11 cells): 0.886 µM
"CCC(=O)N1CCc2cc(-c3ccc(C(=O)NCc4cccnc4)c(F)c3)ccc21 [Compound I-98, 2-fluoro-4-(1-propionylindolin-5-yl)-N-(pyridin-3-ylmethyl) benzamide]",,IC50 (MV-4-11 cells): 0.845 µM; IC50 (RS4;11 cells): > 30 µM
"CCC(=O)N1CCc2cc(-c3ccc(C(=O)NCc4cnccc4C)cc3)ccc21 [Compound I-188, N-((4-methylpyridin-3-yl)methyl)-4-(1-propionylindolin-5-yl)benzamide]",> 30 µM,
"CCC(=O)N1CCc2cc(-c3ccc(C(=O)NCC4CCOCC4)cc3)ccc21 [Compound I-191, 4-(1-propionylindolin-5-yl)-N-((tetrahydro-2H-pyran-4-yl)methyl)benzamide]",> 30 µM,
CCC(=O)N1CCc2cc(-c3ccc(C(=O)NCC4CN(C(=O)OC(C)(C)C)C4)cc3)ccc21 [Compound I-196],> 30 µM,
"CCC(=O)N1CCc2cc(-c3ccc(C(=O)NCc4cccnn4)cc3)ccc21 [Compound I-197, 4-(1-propionylindolin-5-yl)-N-(pyridazin-3-ylmethyl)benzamide]",25.2 µM,
"CCC(=O)N1CCc2cc(-c3ccc(C(=O)NCc4cncc(C)c4)cc3)ccc21 [Compound I-198, N-((5-methylpyridin-3-yl)methyl)-4-(1-propionylindolin-5-yl)benzamide]",1.06 µM,
"CCC(=O)N1CCc2cc(-c3ccc(C(=O)NCC4CNC4)cc3)ccc21 [Compound I-200, N-(azetidin-3-ylmethyl)-4-(1-propionylindolin-5-yl)benzamide]",> 30 µM,
"CC(=O)N(C)c1ccc(-c2ccc(C(=O)NCc3cccnc3)nc2)cc1 [Compound I-202, 5-(4-(N-methylacetamido)phenyl)-N-(pyridin-3-ylmethyl)picolinamide]",10.3 µM,IC50 (AGS cells): 17.5 µM; IC50 (MV-4-11 cells): 1.47 µM; IC50 (RS4;11 cells): 2.55 µM
"CCC(=O)N1CCc2cc(-c3ccc(C(=O)NCc4ccncn4)cc3)ccc21 [Compound I-204, 4-(1-propionylindolin-5-yl)-N-(pyrimidin-4-ylmethyl)benzamide]",> 30 µM,
CCC(=O)N1CCc2cc(-c3ccc(C(=O)NCC4CCCC4)cc3)ccc21 [Compound I-207],> 100 µM,
"CCC(=O)N1CCc2cc(-c3nc(C(=O)NCc4cccnc4)c[nH]3)ccc21 [Compound I-208, 2-(1-propionylindolin-5-yl)-N-(pyridin-3-ylmethyl)-1H-imidazole-4-carboxamide]",> 30 µM,IC50 (AGS cells): 15.1 µM
"CCC(=O)N1CCc2cc(N3CC(C(=O)NCc4cccnc4)C3)ccc21 [Compound I-209, 1-(1-propionylindolin-5-yl)-N-(pyridin-3-ylmethyl)azetidine-3-carboxamide]",> 30 µM,
CCC(=O)N1CCc2cc(-c3ccc(C(=O)NCc4cccnc4)c(O)c3)ccc21 [Compound I-210],3.02 µM,
CCC(=O)N1CCc2cc(-c3ccc(C(=O)NCc4cccnc4)cc3)c(F)cc21 [Compound I-211],1.16 µM,
CCC(=O)N1CCc2cc(-c3ccc(C(=O)NCc4cccnc4)cc3)c(Cl)cc21 [Compound I-212],1.35 µM,
CCC(=O)N1CCc2c1ccc(-c1ccc(C(=O)NCc3cccnc3)cc1)c2F [Compound I-213],3.48 µM,
CCC(=O)N1CCc2c1ccc(-c1ccc(C(=O)NCc3cccnc3)cc1)c2Cl [Compound I-214],0.96 µM,
"CCC(=O)N(C)c1ccc(-c2ccc(C(=O)NCc3cccnc3)cc2)cc1C [Compound I-215, 3′-methyl-4′-(N-methylpropionamido)-N-(pyridin-3-ylmethyl)-[1,1′-biphenyl]-4-carboxamide]",1.82 µM,
CC(=O)N(C)c1ccc(-c2ccc(C(=O)NCc3cccnc3)cc2)cc1C [Compound I-216],2.44 µM,

SMILES,"IC50 (AGS cells; Homo sapiens, AGS, 96 h)",further results
CCC(=O)N(C)c1ccc(-c2ccc(C(=O)NCc3cccnc3)cc2)c(C)c1 [Compound I-217],1.85 µM,
O=C(NCc1cccnc1)c1ccc(-c2ccc3c(c2)CCN3C(=O)C2CC2)cc1 [Compound I-220],2.94 µM,
CCC(=O)N(C)c1ccc(-c2ccc(C(=O)NCc3ccc(C)nc3C)cc2)cc1 [Compound I-221],0.607 µM,
CCC(=O)N1CCc2cc(N3CCN(C(=O)NCc4cccnc4)CC3)ccc21 [Compound I-223],4.54 µM,
"CCC(=O)N(C)c1ccc(-c2ccc(C(=O)NCc3cccnc3)cc2)c(Cl)c1 [Compound I-224, 2′-chloro-4′-(N-methylpropionamido)-N-(pyridin-3-ylmethyl)-[1,1′-biphenyl]-4-carboxamide]",1.48 µM,IC50 (MV-4-11 cells): 1.1 µM; IC50 (RS4;11 cells): 5.32 µM
"CCC(=O)N(C)c1ccc(-c2ccc(C(=O)NCc3cccnc3)cc2)cc1Cl [Compound I-225, 3′-chloro-4′-(N-methylpropionamido)-N-(pyridin-3-ylmethyl)-[1,1′-biphenyl]-4-carboxamide]",1.09 µM,IC50 (MV-4-11 cells): 0.613 µM; IC50 (RS4;11 cells): 0.237 µM
CCC(=O)N(C)c1ccc(-c2ccc(S(=O)(=O)NCc3cccnc3)cc2)cc1 [Compound I-226],9.76 µM,
"CCC(=O)N(C)c1ccc(-c2ccc(C(=O)NCc3cccnc3)nc2)cc1C [Compound I-227, 5-(3-methyl-4-(N-methylpropionamido)phenyl)-N-(pyridin-3-ylmethyl)picolinamide]",5.22 µM,
"CCC(=O)N(C)Cc1ccc(-c2ccc(C(=O)NCc3cccnc3)cc2)cc1 [Compound I-228, 4′-((N-methylpropionamido)methyl)-N-(pyridin-3-ylmethyl)-[1,1′-biphenyl]-4-carboxamide]",3.81 µM,IC50 (MV-4-11 cells): 0.765 µM; IC50 (RS4;11 cells): 1.93 µM
"CCCC(=O)N(C)c1ccc(-c2ccc(C(=O)NCc3cccnc3)cc2)cc1 [Compound I-230, 4′-(N-methylbutyramido)-N-(pyridin-3-ylmethyl)-[1,1′-biphenyl]-4-carboxamide]",4.57 µM,
CCC(=O)N(C)c1ccc(-c2ccc(C(=O)NCc3cncc(F)c3)cc2)cc1 [Compound I-234],> 30 µM,
CCC(=O)N(C)c1ccc(-c2ccc(C(=O)NCc3cncs3)cc2)cc1 [Compound I-235],> 30 µM,
CCC(=O)N(C)c1ccc(-c2ccc(C(=O)NCc3cscn3)cc2)cc1 [Compound I-236],> 30 µM,
CCC(=O)N(C)c1ccc(-c2ccc(C(=O)NCc3cncc(C)c3)cc2)cc1 [Compound I-237],6.69 µM,
CCC(=O)N(C)c1ccc(-c2ccc(C(=O)NCc3cnccc3C)cc2)cc1 [Compound I-238],> 30 µM,
CCC(=O)N(C)c1ccc(-c2ccc(C(=O)NCc3ccccc3)cc2)cc1 [Compound I-239],> 30 µM,
CN(C(=O)c1ccccc1)c1ccc(-c2ccc(C(=O)NCc3cccnc3)cc2)cc1 [Compound I-240],5.11 µM,
CN(C(=O)c1cocn1)c1ccc(-c2ccc(C(=O)NCc3cccnc3)cc2)cc1 [Compound I-245],5.16 µM,
"CCC(=O)N(C)c1ccc(-c2ccc(C(=O)NCc3cccnc3)cn2)c(C)c1 [Compound I-246, 6-(2-methyl-4-(N-methylpropionamido)phenyl)-N-(pyridin-3-ylmethyl)nicotinamide]",12.1 µM,
"CCC(=O)N(C)c1ccc(-c2ccc(C(=O)NCc3cccnc3)cc2)cc1OC [Compound I-248, 3′-methoxy-4′-(N-methylpropionamido)-N-(pyridin-3-ylmethyl)-[1,1′-biphenyl]-4-carboxamide]",3.59 µM,
CN(C(=O)CC#N)c1ccc(-c2ccc(C(=O)NCc3cccnc3)cc2)cc1 [Compound I-249],> 18.4 µM,
CC(C)C(=O)N(C)c1ccc(-c2ccc(C(=O)NCc3cccnc3)cc2)cc1 [Compound I-250],1.87 µM,
CCN(C)C(=O)c1ccc(-c2ccc(C(=O)NCc3cccnc3)cc2)cc1 [Compound I-251],1.65 µM,
"CCC(=O)N1CCc2cc(-c3ccc(C(=O)NCC4=CC[NH2+]CC4)cc3)ccc21 [Mono- formate of I-69, Monoformate 4-(1-propionylindolin-5-yl)-N-((1,2,3,6-tetrahydropyridin-4-yl)methyl)benzamide]",,"IC50 (AGS cells; Homo sapiens, 96 h): > 30 µM"

# From patent US12522587B2, “Cancer treatments targeting cancer stem cells” (Remedy Plan, Inc., priority 2018, dated 2026)
